# Measurements: patent US6482921B1, “Uridyl peptide antibiotic (UPA) derivatives, their synthesis and use” (Essential Therapeutics, Inc., priority 1999, dated 2002)
# Key:
# [1] = tested on: Pseudomonas aeruginosa PAM 1020; test: MIC broth microdilution, P. aeruginosa PAM 1020 (wild type); format: cell-based; conditions: for MIC (μg/ml) Broth microdilution: P. aeruginosa PAM 1020
# [2] = tested on: Pseudomonas aeruginosa PAM 1154; test: MIC broth microdilution, P. aeruginosa PAM 1154 (OprM::Hg); format: cell-based; conditions: for MIC (μg/ml) Broth microdilution: P. aeruginosa PAM 1154 OprM::Hg
# [3] = tested on: Pseudomonas aeruginosa PAM 1135; test: MIC broth microdilution, P. aeruginosa PAM 1135 (high level UPA resistance); format: cell-based; conditions: for MIC (μg/ml) Broth microdilution: P. aeruginosa PAM 1135 UPA1^r
# [4] = tested on: Pseudomonas aeruginosa PAM 1323; test: MIC broth microdilution, P. aeruginosa PAM 1323 (medium level UPA resistance); format: cell-based
# Escherichia Coli MC 4100 = test: MIC broth microdilution, E. coli MC 4100 (wild type); format: cell-based; conditions: for MIC (μg/ml) Broth microdilution: E. coli MC 4100
# [5] = tested on: Escherichia Coli MC 4100 AcrAB; test: MIC broth microdilution, E. coli MC 4100 AcrAB (ΔAcrAB); format: cell-based; conditions: for MIC (μg/ml) Broth microdilution: E. coli AcrAB
# [6] = tested on: Escherichia Coli MC 4100 AcrAB UPA3r; test: MIC broth microdilution, E. coli MC 4100 AcrAB UPA3r (ΔAcrAB, UPA resistant); format: cell-based; conditions: for MIC (μg/ml) Broth microdilution: E. coli AcrAB UPA3^r
# [7] = tested on: Staphylococcus aureus ATCC 29213; test: MIC broth microdilution, S. aureus ATCC 29213 (wild type); format: cell-based; conditions: for MIC (μg/ml) Broth microdilution: S. aureus ATCC 29213
# [8] = tested on: Staphylococcus aureus 8325-4; test: MIC broth microdilution, S. aureus 8325-4 (wild type); format: cell-based; conditions: for MIC (μg/ml) Broth microdilution: S. aureus 8325-4
# [9] = tested on: Pasteurella multocida pm002; test: MIC broth microdilution, P. multocida pm002 (wild type); format: cell-based
# [10] = tested on: Mycobacterium tuberculosis H37Rv; test: MIC agar dilution, M. tuberculosis H37Rv; format: cell-based
# [11] = tested on: Mycobacterium tuberculosis TN913; test: MIC agar dilution, M. tuberculosis TN913; format: cell-based
# [12] = tested on: Mycobacterium fortuitum ATCC 6841; test: MIC broth microdilution, M. fortuitum ATCC 6841; conditions: 72 hours at 35° C., CAMHB
# [13] = tested on: Mycobacterium smegmatis ATCC 19420; test: MIC broth microdilution, M. smegmatis ATCC 19420; conditions: 72 hours at 35° C., CAMHB
# bacteria = test: Antibacterial activity, stated in words; format: cell-based
# E. coli translocase = E. coli translocase (Escherichia coli, UniProt P0A6W3)
# [14] = target: bacterial translocase I (phospho-N-acetylmuramyl-pentapeptide translocase) (Escherichia coli, UniProt P0A6W3); conditions: background statement; cited from earlier work
# [15] = tested on: mammalian enzymes that catalyze the formation of lipid-linked saccharides; conditions: background statement; cited from earlier work
# Chain of bacterial translocase I (phospho-N-acetylmuramyl-pentapeptide translocase) (P0A6W3 whole entry): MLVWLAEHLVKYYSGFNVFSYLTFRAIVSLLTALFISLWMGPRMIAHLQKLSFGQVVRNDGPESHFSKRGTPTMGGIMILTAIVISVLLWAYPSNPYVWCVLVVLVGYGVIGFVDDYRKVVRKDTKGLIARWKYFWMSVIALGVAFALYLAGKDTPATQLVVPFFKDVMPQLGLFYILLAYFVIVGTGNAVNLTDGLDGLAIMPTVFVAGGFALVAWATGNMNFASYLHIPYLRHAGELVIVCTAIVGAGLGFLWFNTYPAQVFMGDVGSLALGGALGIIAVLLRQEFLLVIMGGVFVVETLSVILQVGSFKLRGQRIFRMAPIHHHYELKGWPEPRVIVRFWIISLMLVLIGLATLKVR
# Chain of E. coli translocase (P0A6W3 whole entry): as above
Compound,MIC (μg/ml) Broth microdilution [1] [µg/mL],MIC (μg/ml) Broth microdilution [2] [µg/mL],MIC (μg/ml) Broth microdilution [3] [µg/mL],MIC (μg/ml) Broth microdilution [4] [µg/mL],MIC (μg/ml) Broth microdilution (Escherichia Coli MC 4100) [µg/mL],MIC (μg/ml) Broth microdilution [5] [µg/mL],MIC (μg/ml) Broth microdilution [6] [µg/mL],MIC (μg/ml) Broth microdilution [7] [µg/mL],MIC (μg/ml) Broth microdilution [8] [µg/mL],MIC (μg/ml) Broth microdilution [9] [µg/mL],MIC H37RV (SENSITIVE) [10] [µg/mL],MIC TN913 (SENSITIVE) [11] [µg/mL],MIC Broth microdilution M. fortuitum ATCC 6841 [12] [µg/mL],MIC Broth microdilution M. smegmatis ATCC19420 [13] [µg/mL],further results
"CC(N)C(=O)N(C)C(C)C(NC(=O)C(Cc1ccccc1)NC(=O)NC(Cc1ccc2ccccc2c1)C(=O)O)C(=O)NCC1CC(O)C(n2ccc(=O)[nH]c2=O)O1 [Compound 133, 1-[5′-[(2S,3S)-N^3-L-Alanyl-N^2-[N-[[(1S)-1-carboxy-2-naphthalenethyl]carbamoyl]-L-phenylalanyl]-N^3-methyl-2,3-diaminobutyramido]-3′,5′-dideoxy-α-L-arabinofuranosyl]uracil]",64,32,>512,>512,256,<1,32,256,128,256,30,30,32,8,
Dihydropacidamycin D [Compound 3],16,8,>512,,128,2,32,512,256,,,,,,antibacterial / biological activity (in words) (bacteria): displayed the antibacterial spectrum of pacidamycin D; inhibition of E. coli translocase (in words) (E. coli translocase): inhibitor of E. coli translocase
tunicamycin,,,,,,,,,,,,,,,translocase inhibition (in words) [14]: translocase inhibitors; action on mammalian enzymes / lipid-linked saccharide formation (in words) [15]: also target mammalian enzymes
"CC(C)CC(N)C(=O)N(C)C(C)C(NC(=O)C(Cc1ccccc1)NC(=O)NC(Cc1c[nH]c2ccccc12)C(=O)O)C(=O)NCC1CC(O)C(n2ccc(=O)[nH]c2=O)O1 [Compound 159, 1-[5′-[(2S,3S)-N^2-[N-[[(1S)-1-Carboxy-2-indol-3-ylethyl]carbamoyl]-L-phenylalanyl]l-N^3-L-leucyl-N^3-methyl-2,3-diaminobutyramido]-3′,5′-dideoxy-α-L-arabinofuranosyl]uracil]",128,8,256,256,>512,2,64,>512,>512,128,30,30,64,8,
Tetrahydropacidamycin D [Compound 4],8,4,512,,256,2,64,>512,>512,,,,,,antibacterial / biological activity (in words) (bacteria): exhibited antibacterial activity; inhibition of translocase I (in words) (E. coli translocase; species of enzyme not given): inhibited translocase I
amphomycin [reference compound],64,4,512,,256,4,16,>512,>512,,,,,,translocase inhibition (in words) [14]: translocase inhibitors; action on mammalian enzymes / lipid-linked saccharide formation (in words) [15]: also target mammalian enzymes
C[C@H](N)C(=O)N(C)[C@@H](C)[C@H](NC(=O)[C@H](C)NC(=O)N[C@@H](Cc1c[nH]c2ccccc12)C(=O)O)C(=O)NC[C@H]1C[C@@H](O)[C@H](n2ccc(=O)[nH]c2=O)O1 [Compound 34],,,,,,,,,,,,,,,"MIC ([1]; Pseudomonas aeruginosa, PAM1020, read-out: MIC (μg/ml) Broth microdilution): 64 µg/mL; MIC ([2]; Pseudomonas aeruginosa, PAM1154, read-out: MIC (μg/ml) Broth microdilution): 4 µg/mL; MIC ([3]; Pseudomonas aeruginosa, PAM1135, read-out: MIC (μg/ml) Broth microdilution): > 512 µg/mL; MIC (Escherichia Coli MC 4100; Escherichia coli, COLIMC4100, read-out: MIC (μg/ml) Broth microdilution): 128 µg/mL; MIC ([5]; Escherichia coli, COLIMC4100ACRAB, read-out: MIC (μg/ml) Broth microdilution): 2 µg/mL; MIC ([6]; Escherichia coli, read-out: MIC (μg/ml) Broth microdilution): 16 µg/mL; MIC ([7]; Staphylococcus aureus, ATCC29213, read-out: MIC (μg/ml) Broth microdilution): 512 µg/mL; MIC ([8]; Staphylococcus aureus, 83254, read-out: MIC (μg/ml) Broth microdilution): > 512 µg/mL; antibacterial / biological activity (in words) (bacteria): comparable biological activity to dihydropacidamycin D"
"CC(N)C(=O)N(C)C(C)C(NC(=O)C(Cc1ccc(-c2ccccc2)cc1)NC(=O)NC(Cc1c[nH]c2ccccc12)C(=O)O)C(=O)NCC1CC(O)C(n2ccc(=O)[nH]c2=O)O1 [Compound 155, 1-[5′-[(2S,3S)-N^3-L-Alanyl-N^2-[N-[[(1S)-1-carboxy-2-indol-3-ylethyl)carbamoyl]-L-4-biphenylalanyl]-N^3-methyl-2,3-diaminobutyramidol-3′,5′-dideoxy-α-L-arabinofuranosyl]uracil]",256,64,512,256,512,8,512,>512,512,32,10,10,32,4,
"CC(N)C(=O)N(C)C(C)C(NC(=O)C(Cc1ccccc1)NC(=O)NC(Cc1c[nH]c2ccccc12)C(=O)O)C(=O)NCC1CC(O)C(n2ccc(=O)[nH]c2=O)O1 [Compound 164, 1-[5′-[(2S,3S)-N^3-L-Alanyl-N^2-[N-[[(1S)-1-carboxy-2-indol-3-ylethyl]carbamoyl]-L-phenylalanyl]-N^3-methyl-2,3-diaminobutyramido]-3′,5′-dideoxy-α-L-arabinofuranosyl]uracil]",16,4,256,256,512,<1,64,256,128,128,10,10,,,
"CC(N)C(=O)N(C)C(C)C(NC(=O)C(Cc1ccc(F)cc1)NC(=O)NC(Cc1c[nH]c2ccccc12)C(=O)O)C(=O)NCC1CC(O)C(n2ccc(=O)[nH]c2=O)O1 [Compound 158, 1-[5′-[(2S,3S)-N^3-L-Alanyl-N^2-[N-[[(1S)-1-carboxy-2-indol-3-ylethyl]carbamoyl]-L-4-fluorophenylalanyl]-N^3-methyl-2,3-diaminobutyramidol-3′,5′-dideoxy-α-L-arabinofuranosyl]uracil]",64,8,256,256,512,<1,32,512,512,64,10,10,32,1,
CC(C)C[C@H](NC(=O)N[C@@H](Cc1c[nH]c2ccccc12)C(=O)O)C(=O)N[C@H](C(=O)NC[C@H]1C[C@@H](O)[C@H](n2ccc(=O)[nH]c2=O)O1)[C@H](C)N(C)C(=O)CN [Compound 109],4,<1,>512,128,128,<1,8,>512,>512,128,>30,30,,,
